{"source": "patent US20050182252A1", "about": "“Novel 2'-C-methyl nucleoside derivatives” (priority 2004, published 2005)", "key": {"[1]": {"parameters": "species or system C57BL/6 mice", "conditions": "in vivo; for Liver NTP AUC: mouse", "experimental": "The liver specificity of the compound 19 prodrug was compared relative to the parent nucleoside, 2′-C-methylguanosine, and for compound 21.1 prodrug relative to its parent nucleoside, 2′-C-methyladenosine, by measuring the generation of NTP in the liver compared to nucleoside in the plasma.\nCompound 19 or 2′-C-methylguanosine were administered intraperitoneally to C57BL/6 mice at a dose of 30 mg/kg based on nucleoside equivalents (30 mg/kg 2′-C-methylguanosine and 53.27 mg/kg compound 19). Compound 21.1 or 2′-C-methyladenosine were administered intravenously to C57BL/6 mice at dose of about 5.5 mg/kg nucleoside equivalents (5.5 mg/kg 2′-C-methyladenosine and 10 mg/kg compound 21.1). Plasma concentrations of 2′-C-methylguanosine, compound 19, 2′-C-methyladenosine, and compound 21.1 were determined by HPLC-UV and the liver concentrations of the 5′-triphosphate of 2′-C-methylguanosine and 2′-C-methyladenosine were measured by LC-MS using the standard ion-pairing chromatography method for triphosphate as described in Example E. Conventional SAX HPLC-UV could not differentiate between endogenous GTP and 2′-C-methylguanosine triphosphate. Since an authentic standard of 2′-C-methylguanosine triphosphate was not available, the liver concentrations of the nucleotide were approximated as described in Example E."}, "HCV": {"system": "HCV", "assay": "HCV-infected human liver slice assay (HCV RNA in culture medium)", "assay_type": "cell-based", "conditions": "for Log10 decrease in viral RNA from control at 48-72 h: HCV RNA in culture medium of HCV-infected human liver slices; for HCV RNA levels in the liver slice culture media versus control, untreated slices: in words, treatment for 72 h", "experimental": "Inhibition of HCV replication in human liver tissue was evaluated using the following assay.\nLiver from a brain-dead HCV antibody-positive human patient was perfused with ice-cold Viaspan (Dupont Pharmaceutical) preservation solution and received on ice in Viaspan.\nPrecision-cut liver slices of ˜200-250 μm thickness and […] diameter were prepared and cultured in Waymouth's cell culture medium (Gibco, Inc.) that was supplemented with 10% fetal bovine serum and 10 mL/L Fungi-Bact at 37° C., and gassed with carbogen (95% O2, 5% CO2) at 0.75 liters/min. Tissue slices were maintained in culture for 72 h. Cell culture medium containing test compound in solution was changed on a daily basis.\nAt appropriate times of liver slice incubation, liver slices and medium were collected for analysis of HCV RNA (tissue and medium) and nucleotide levels (NTP). All collected media and tissue slices were maintained in liquid N2 until analysis.\nMedium and tissue samples were analyzed for HCV RNA levels according to published procedures (Bonacini et. al., 1999) which utilize an automated, multicycle, polymerase chain reaction (PCR)-based technique. This assay has a lower limit of detection for HCV RNA of 100 viral copies/ml."}}, "note": "“Also recorded” adds a separate entry of the source. Counter-ions that a name gives are not always drawn."}
{"smiles": "C[C@@]1(O)[C@H](O)[C@@H](CO)O[C@H]1n1cnc2c(N)ncnc21", "note": "[2′-C-methyladenosine, reference compound]", "values": [{"measurement": "Plasma Nucleoside AUC", "setting": "[1]; C57BL/6, mouse, iv, 5.5 mg/kg", "value": 26.8, "unit": "µM·h"}, {"measurement": "Liver NTP AUC", "setting": "[1]; iv, 5.5 mg/kg", "value": 119, "unit": "nmol·h/g"}]}
{"smiles": "C[C@@]1(O)[C@H](O)[C@@H](COP2(=O)OCC[C@@H](c3cccc(Cl)c3)O2)O[C@H]1n1cnc2c(N)ncnc21", "note": "(stereo partly drawn) [Compound 21.1, cis-5′-O-[4-(S)-(3-chlorophenyl)-2-oxo-1,3,2-dioxaphosphorinan-2-yl]-2′-C-beta-methyl-adenosine trifluoroacetic acid salt]", "values": [{"measurement": "Liver NTP AUC", "setting": "[1]; iv, 5.5 mg/kg", "value": 502, "unit": "nmol·h/g"}]}
{"smiles": "C[C@@]1(O)[C@H](O)[C@@H](CO)O[C@H]1n1cnc2c(=O)[nH]c(N)nc21", "note": "[2′-C-methylguanosine, reference compound]", "values": [{"measurement": "Liver Targeting Index (Liver/Plasma)", "setting": "[1]; C57BL/6, mouse, ip, 30 mg/kg", "value": 0.87}, {"measurement": "Log10 decrease in viral RNA from control at 48-72 h", "setting": "HCV; 0.25 μM compound", "value": 0.51, "unit": "Log10"}, {"measurement": "Log10 decrease in viral RNA from control at 48-72 h", "setting": "HCV; 2.5 μM compound", "value": 1.74, "unit": "Log10"}, {"measurement": "Log10 decrease in viral RNA from control at 48-72 h", "setting": "HCV; 25 μM compound", "value": 1.48, "unit": "Log10"}, {"measurement": "HCV RNA levels in the liver slice culture media versus control, untreated slices", "setting": "HCV", "value": "decreased"}]}
{"smiles": "C[C@@]1(O)[C@H](O)[C@@H](CO[P@]2(=O)OCC[C@H](c3cccc(Cl)c3)O2)O[C@H]1n1cnc2c(=O)[nH]c(N)nc21", "note": "(relative stereo) [Compound 19, cis-5′-O-[4-(3-Chlorophenyl)-2-oxo-1,3,2-dioxaphosphorinan-2-yl]-2′-C-methyl-guanosine]", "values": [{"measurement": "Liver Targeting Index (Liver/Plasma)", "setting": "[1]; C57BL/6, mouse, ip, 30 mg/kg", "value": 26.2}, {"measurement": "Prodrug Improvement (Fold)", "setting": "[1]; C57BL/6, mouse, ip, 30 mg/kg", "value": 30, "unit": "Fold"}, {"measurement": "Log10 decrease in viral RNA from control at 48-72 h", "setting": "HCV; 0.25 μM compound", "value": 1.27, "unit": "Log10"}, {"measurement": "Log10 decrease in viral RNA from control at 48-72 h", "setting": "HCV; 1 μM compound", "value": 1.61, "unit": "Log10"}, {"measurement": "Log10 decrease in viral RNA from control at 48-72 h", "setting": "HCV; 2.5 μM compound", "value": 1.70, "unit": "Log10"}, {"measurement": "Log10 decrease in viral RNA from control at 48-72 h", "setting": "HCV; 25 μM compound", "value": 1.72, "unit": "Log10"}, {"measurement": "HCV RNA levels in the liver slice culture media versus control, untreated slices", "setting": "HCV", "value": "decreased; also recorded: more effective than treatment with the nucleoside"}]}
{"smiles": "C[C@@]1(O)[C@H](O)[C@@H](COP2(=O)OC3CCCCC3[C@@H](c3ccccc3)O2)O[C@H]1n1ccc2c(N)ncnc21", "note": "(stereo partly drawn) [Compound 16.42, 4-amino-7-(cis-5′-O-[4-phenyl-5,6-tetramethylene-2-oxo-1,3,2-dioxaphosphorinan-2-yl]-2′-C-methyl-beta-D-ribofuranosyl)-7H-pyrrolo[2,3-d]pyrimidine]", "values": [{"measurement": "melting point", "value": "110 to 113", "unit": "°C"}]}
{"smiles": "C[C@@]1(O)[C@H](O)[C@@H](COP2(=O)OCC[C@@H](c3ccccc3C(F)(F)F)O2)O[C@H]1n1ccc2c(=O)[nH]c(N)nc21", "note": "(stereo partly drawn) (as salt: trifluoroacetic acid salt) [Compound 17.9, 2-amino-7-(cis-5-O-[4-(2-trifluoromethylphenyl)-2-oxo-1,3,2-dioxaphosphorinan-2-yl]-2′-C methyl-beta-D-ribofuranosyl)-7H-pyrrolo[2,3-d]pyrimidin-4(3H)-one trifluoroacetic acid salt]", "values": [{"measurement": "melting point", "value": "185 to 188", "unit": "°C"}]}
{"smiles": "C[C@@]12OC(=O)O[C@@H]1[C@@H](COP1(=O)OCC[C@H](c3ccncc3)O1)O[C@H]2n1ccc2c(N)ncnc21", "note": "(stereo partly drawn) [Compound 23.2, 4-amino-7-(2′,3′-carbonyl-cis-5′-O-[4-(S)-(pyridin-4-yl)-2-oxo-1,3,2-dioxaphosphorinan-2-yl]-2′-C-methyl-beta-D-ribofuranosyl)-7H-pyrrolo[2,3-d]pyrimidine]", "values": [{"measurement": "melting point", "value": "192 to 195", "unit": "°C"}]}
{"smiles": "C[C@@]1(O)[C@H](O)[C@@H](CO[P@]2(=O)OCC[C@H](c3cccc(Cl)c3)O2)O[C@H]1n1ccc2c(=O)[nH]c(N)nc21", "note": "(as salt: trifluoroacetic acid salt) [Compound 17.10, 2-amino-7-(cis-5′-O-[4-(R)-(3-chlorophenyl)-2-oxo-1,3,2-dioxaphosphorinan-2-yl]-2′-C methyl-beta-D-ribofuranosyl)-7H-pyrrolo[2,3-d]pyrimidin-4(3H)-one trifluoroacetic acid salt]", "values": [{"measurement": "melting point", "value": "170 to 180", "unit": "°C"}]}
{"smiles": "C[C@@]1(O)[C@H](O)[C@@H](CO[P@]2(=O)OCC[C@H](c3ccccc3)O2)O[C@H]1n1ccc2c(=O)[nH]c(N)nc21", "note": "[Compound 17.16, 2-amino-7-(cis-5-O-[4-(R)-phenyl-2-oxo-1,3,2-dioxaphosphorinan-2-yl]-2-C methyl-beta-D-ribofuranosyl)-7H-pyrrolo[2,3-d]pyrimidin-4(3H)-one]", "values": [{"measurement": "melting point", "value": "128 to 133", "unit": "°C"}]}
{"smiles": "CC(=O)O[C@@H]1[C@@H](COP2(=O)OCC[C@H](c3cccc(Cl)c3)O2)O[C@@H](n2ccc3c(N)ncnc32)[C@]1(C)O", "note": "(stereo partly drawn) [Compound 22.2, 4-amino-7-(3′-acetyl-cis-5′-O-[4-(S)-(3-chlorophenyl)-2-oxo-1,3,2-dioxaphosphorinan-2-yl]-2′-C-methyl-beta-D-ribofuranosyl)-7H-pyrrolo[2,3-d]pyrimidine]", "values": [{"measurement": "melting point", "value": "90 to 93", "unit": "°C"}]}
{"smiles": "C[C@@]1(O)[C@H](O)[C@@H](COP2(=O)OCC[C@H](c3ccc(Cl)c(Cl)c3)O2)O[C@H]1n1ccc2c(=O)[nH]c(N)nc21", "note": "(stereo partly drawn) (as salt: salt) [Compound 17.22, 2-amino-7-(cis-5′-O-[4-(3,4-dichlorophenyl)-2-oxo-1,3,2-dioxaphosphorinan-2-yl]-2′-C methyl-beta-D-ribofuranosyl)-7H-pyrrolo[2,3-d]pyrimidin-4(3H)-one]", "values": [{"measurement": "melting point", "value": "192 to 195", "unit": "°C"}]}
{"smiles": "C[C@@]1(O)[C@H](O)[C@@H](COP2(=O)OCC[C@H](c3cc(Cl)cc(Cl)c3)O2)O[C@H]1n1ccc2c(=O)[nH]c(N)nc21", "note": "(stereo partly drawn) [Compound 17.12, 2-amino-7-(cis-5′-O-[4-(3,5-dichlorophenyl)-2-oxo-1,3,2-dioxaphosphorinan-2-yl]-2′C methyl-beta-D-ribofuranosyl)-7H-pyrrolo[2,3-d]pyrimidin-4(3H)-one]", "values": [{"measurement": "melting point", "value": "177 to 180", "unit": "°C"}]}
{"smiles": "C[C@@]1(O)[C@H](O)[C@@H](COP2(=O)OCC[C@@H](c3ccc(F)c(Br)c3)O2)O[C@H]1n1ccc2c(=O)[nH]c(N)nc21", "note": "(stereo partly drawn) [Compound 17.15, 2-amino-7-(cis-5′-O-[4-(3-bromo-4-fluoro-phenyl)-2-oxo-1,3,2-dioxaphosphorinan-2-yl]-2′-C methyl-beta-D-ribofuranosyl)-7H-pyrrolo[2,3-d]pyrimidin-4(3H)-one]", "values": [{"measurement": "melting point", "value": "175 to 179", "unit": "°C"}]}
{"smiles": "C[C@@]1(O)[C@H](O)[C@@H](COP2(=O)OCC[C@@H](c3cc(F)ccc3F)O2)O[C@H]1n1ccc2c(=O)[nH]c(N)nc21", "note": "(stereo partly drawn) [Compound 17.6, 2-amino-7-(cis-5′-O-[4-(2,5-difluorophenyl)-2-oxo-1,3,2-dioxaphosphorinan-2-yl]-2′-C methyl-beta-D-ribofuranosyl)-7H-pyrrolo[2,3-d]pyrimidin-4(3H)-one]", "values": [{"measurement": "melting point", "value": "170 to 173", "unit": "°C"}]}
{"smiles": "C[C@@]1(O)[C@H](O)[C@@H](COP2(=O)OCC[C@@H](c3ccccc3Cl)O2)O[C@H]1n1ccc2c(N)ncnc21", "note": "(stereo partly drawn) [Compound 16.14, 4-amino-7-(cis-5′-O-[4-(2-chlorophenyl)-2-oxo-1,3,2-dioxaphosphorinan-2-yl]-2′-C-methyl-beta-D-ribofuranosyl)-7H-pyrrolo[2,3-d]pyrimidine]", "values": [{"measurement": "melting point", "value": "187 to 190", "unit": "°C"}]}
{"smiles": "C[C@@]1(O)[C@H](O)[C@@H](CO[P@@]2(=O)OCC[C@@H](c3ccncc3)O2)O[C@H]1n1ccc2c(N)ncnc21", "note": "[Compound 16.7]", "values": [{"measurement": "melting point", "value": "183 to 185", "unit": "°C"}]}
{"smiles": "C[C@@]1(O)[C@H](O)[C@@H](COP2(=O)OCC[C@H](c3ccc(F)c(Cl)c3)O2)O[C@H]1n1ccc2c(N)ncnc21", "note": "(stereo partly drawn) [Compound 16.3, 4-amino-7-(cis-5′-O-[4-(3-chloro-4-fluorophenyl)-2-oxo-1,3,2-dioxaphosphorinan-2-yl]-2′-C-methyl-beta-D-ribofuranosyl)-7H-pyrrolo[2,3-d]pyrimidine]", "values": [{"measurement": "melting point", "value": "128 to 130", "unit": "°C"}]}
